Laboratory results: patent publication US10626112B2, “Heterocyclic sulfonamide derivative and medicine comprising same” (EA PHARMA CO., LTD., priority 2014, dated 2020)

Target: human TRPA1 (Homo sapiens (Human), UniProt O75762)
Test: Measurement of TRPA1 antagonist activity (1): intracellular calcium increase
Format: cell-based
Conditions: 293T cells transfected with human TRPA1 expression plasmid; allylisothiocyanate 20 μM stimulation; intracellular calcium fluorescence; read-out: hTRPA1 IC50
Method in brief: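 Calcium-flux readout of TRPA1 block: compound given 10 min before 20 μM (final) allylisothiocyanate, fluorescence tracked 5 min. Cells were 293T transiently expressing human TRPA1, dye-loaded 1 hr in HBSS, 20 mM HEPES, pH 7.2. Inhibition scaled between agonist-only and buffer-only responses; IC50 by sigmoid fitting.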

Sequence of human TRPA1 (O75762 whole entry): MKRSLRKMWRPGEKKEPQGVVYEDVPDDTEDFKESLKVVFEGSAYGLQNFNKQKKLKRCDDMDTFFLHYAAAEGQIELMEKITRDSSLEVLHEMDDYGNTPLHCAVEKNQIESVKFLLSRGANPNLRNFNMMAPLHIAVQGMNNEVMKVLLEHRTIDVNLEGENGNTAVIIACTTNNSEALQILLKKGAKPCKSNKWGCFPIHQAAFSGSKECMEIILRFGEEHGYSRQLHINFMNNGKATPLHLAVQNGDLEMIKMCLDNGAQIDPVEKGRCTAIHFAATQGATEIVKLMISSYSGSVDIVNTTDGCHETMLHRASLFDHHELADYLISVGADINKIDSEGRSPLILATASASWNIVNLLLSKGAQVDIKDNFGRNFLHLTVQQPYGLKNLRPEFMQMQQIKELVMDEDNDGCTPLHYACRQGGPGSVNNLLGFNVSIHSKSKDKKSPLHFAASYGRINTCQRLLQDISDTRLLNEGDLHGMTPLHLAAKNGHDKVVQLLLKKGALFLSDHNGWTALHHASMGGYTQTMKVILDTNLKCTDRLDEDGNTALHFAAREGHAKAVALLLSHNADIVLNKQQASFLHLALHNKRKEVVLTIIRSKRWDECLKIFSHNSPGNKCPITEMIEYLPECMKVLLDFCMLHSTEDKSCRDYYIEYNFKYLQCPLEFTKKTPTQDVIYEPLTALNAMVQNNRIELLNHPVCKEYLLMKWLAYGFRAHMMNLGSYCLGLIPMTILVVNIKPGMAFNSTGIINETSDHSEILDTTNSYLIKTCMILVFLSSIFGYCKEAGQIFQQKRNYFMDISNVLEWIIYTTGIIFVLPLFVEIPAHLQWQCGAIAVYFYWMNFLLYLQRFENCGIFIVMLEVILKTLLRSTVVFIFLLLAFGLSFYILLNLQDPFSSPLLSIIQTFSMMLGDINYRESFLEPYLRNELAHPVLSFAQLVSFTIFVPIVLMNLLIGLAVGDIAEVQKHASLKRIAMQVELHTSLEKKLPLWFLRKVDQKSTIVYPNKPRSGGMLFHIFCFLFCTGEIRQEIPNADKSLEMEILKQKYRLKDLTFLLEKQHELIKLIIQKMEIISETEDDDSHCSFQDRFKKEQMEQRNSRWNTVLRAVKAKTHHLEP

SMILES | IC50 [µM]
O=C(NCc1cc(-c2ccc(C(F)(F)F)cc2O)ccn1)[C@@H]1CCCN1S(=O)(=O)c1cc2cc(F)ccc2o1 [Example 280, (2S)-1-(5-fluorobenzofuran-2-yl)sulfonyl-N-[[4-[2-hydroxy-4-(trifluoromethyl)phenyl]-2-pyridyl]methyl]pyrrolidine-2-carboxamide] | 0.52
O=C(NCc1cc(/C=C/C2CC2)ccn1)[C@@H]1CCCN1S(=O)(=O)c1cc2ccccc2o1 [Example 282, (2S)-1-(benzofuran-2-ylsulfonyl)-N-[[4-[(E)-2-cyclopropylvinyl]-2-pyridyl]methyl]pyrrolidine-2-carboxamide] | 0.25
O=C(NCc1cc(C2=CCCCC2)ccn1)[C@@H]1CCCN1S(=O)(=O)c1cc2ccccc2o1 [Example 283, (2S)-1-(benzofuran-2-ylsulfonyl)-N-[[4-(cyclohexen-1-yl)-2-pyridyl]methyl]pyrrolidine-2-carboxamide] | 0.25
Cc1ccc(-c2ccnc(CNC(=O)[C@@H]3CCCN3S(=O)(=O)c3cc4ccccc4o3)c2)cc1 [Example 284, (2S)-1-(benzofuran-2-ylsulfonyl)-N-[[4-(p-tolyl)-2-pyridyl]methyl]pyrrolidine-2-carboxamide] | 0.076
CC(C)(C)c1ccc(-c2ccnc(CNC(=O)[C@@H]3CCCN3S(=O)(=O)c3cc4ccccc4o3)c2)cc1 [Example 285, (2S)-1-(benzofuran-2-ylsulfonyl)-N-[[4-(4-tert-butylphenyl)-2-pyridyl]methyl]pyrrolidine-2-carboxamide] | 0.03
O=C(NCc1cc(-c2cc(Cl)cs2)ccn1)[C@@H]1CCCN1S(=O)(=O)c1cc2ccccc2o1 [Example 286, (2S)-1-(benzofuran-2-ylsulfonyl)-N-[[4-(4-chloro-2-thienyl)-2-pyridyl]methyl]pyrrolidine-2-carboxamide] | 0.18
CNc1ccccc1-c1cc(CNC(=O)[C@@H]2CCCN2S(=O)(=O)c2cc3ccccc3o2)ccn1 [Example 292, (2S)-1-(benzofuran-2-ylsulfonyl)-N-[[2-[2-(methylamino)phenyl]-4-pyridyl]methyl]pyrrolidine-2-carboxamide] | 0.58
O=C(NCc1ccnc(-c2cc(C(F)(F)F)n[nH]2)c1)[C@@H]1CCCN1S(=O)(=O)c1cc2ccccc2o1 [Example 294, (2S)-1-(benzofuran-2-ylsulfonyl)-N-[[2-[3-(trifluoromethyl)-1H-pyrazol-5-yl]-4-pyridyl]methyl]pyrrolidine-2-carboxamide] | 0.17
O=C(NCc1cccc(OS(=O)(=O)c2cc3cc(F)ccc3o2)c1)[C@@H]1CCCN1S(=O)(=O)c1cc2cc(F)ccc2o1 [Example 295, 5-fluorobenzofuran-2-sulfonic acid [3-[[[(2S)-1-(5-fluorobenzofuran-2-yl)sulfonylpyrrolidine-2-carbonyl]amino]methyl]phenyl]ester] | 0.069
O=C(Nc1cccc(CNC(=O)[C@@H]2CCCN2S(=O)(=O)c2cc3ccccc3o2)c1)c1ccc(C(F)(F)F)cc1 [Example 300, (2S)-1-(benzofuran-2-ylsulfonyl)-N-[[3-[[4-(trifluoromethyl)benzoyl]amino]phenyl]methyl]pyrrolidine-2-carboxamide] | 0.31
C[C@H](NS(=O)(=O)c1cc2cnccc2o1)C(=O)NCc1cc(-c2ccc(C(F)(F)F)cc2)ncn1 [Example 301, (2S)-2-(furo[3,2-c]pyridin-2-ylsulfonylamino)-N-[[6-[4-(trifluoromethyl)phenyl]pyrimidin-4-yl]methyl]propanamide] | 0.03
C[C@H](NS(=O)(=O)c1cc2cnccc2o1)C(=O)NCc1ccnc(-c2ccc(C(F)(F)F)cc2O)c1 [Example 303, (2S)-2-(furo[3,2-c]pyridin-2-ylsulfonylamino)-N-[[2-[2-hydroxy-4-(trifluoromethyl)phenyl]-4-pyridyl]methyl]propanamide] | 0.042
C[C@H](NS(=O)(=O)c1cc2cnccc2o1)C(=O)NCc1cc(-c2ccc(C(F)(F)F)cn2)ccn1 [Example 304, (2S)-2-(furo[3,2-c]pyridin-2-ylsulfonylamino)-N-[[4-[5-(trifluoromethyl)-2-pyridyl]-2-pyridyl]methyl]propanamide] | 0.35
O=C(NCc1ccc(F)c(-c2ccc(C(F)(F)F)cc2O)c1)[C@@H]1CCCN1S(=O)(=O)c1cc2ccccc2o1 [Example 308] | 0.36
CC(C)COc1nc(CNC(=O)[C@@H]2CCCN2S(=O)(=O)c2cc3ccccc3o2)cc(-c2ccc(C(F)(F)F)cc2)n1 [Example 311, (2S)-1-(benzofuran-2-ylsulfonyl)-N-[[2-isobutoxy-6-[4-(trifluoromethyl)phenyl]pyrimidin-4-yl]methyl]pyrrolidine-2-carboxamide] | 0.0037

Results, then the compound that gave them:

IC50 [µM] | SMILES
0.022 | N#Cc1ccc(-c2ccnc(CNC(=O)[C@@H]3CCCN3S(=O)(=O)c3cc4ccccc4o3)c2)cc1 [Example 281, (2S)-1-(benzofuran-2-ylsulfonyl)-N-[[4-(4-cyanophenyl)-2-pyridyl]methyl]pyrrolidine-2-carboxamide]
0.0079 | C[C@H](NC(=O)[C@@H]1CCCN1S(=O)(=O)c1cc2ccccc2o1)c1cccc(-c2ccc(C(F)(F)F)nc2)c1 [Example 287, (2S)-1-(benzofuran-2-ylsulfonyl)-N-[(1S)-1-[3-[6-(trifluoromethyl)-3-pyridyl]phenyl]ethyl]pyrrolidine-2-carboxamide]
0.0025 | O=C(NCc1cc(-c2ccc(C(F)(F)F)cc2O)ncn1)[C@@H]1CCCN1S(=O)(=O)c1cc2ccccc2o1 [Example 288, (2S)-1-(benzofuran-2-ylsulfonyl)-N-[[6-[2-hydroxy-4-(trifluoromethyl)phenyl]pyrimidin-4-yl]methyl]pyrrolidine-2-carboxamide]
0.0014 | O=C(NCc1cc(-c2ccc(C(F)(F)F)cc2O)ncn1)[C@@H]1CCCN1S(=O)(=O)c1cc2cc(F)ccc2o1 [Example 289, (2S)-1-(5-fluorobenzofuran-2-yl)sulfonyl-N-[[6-[2-hydroxy-4-(trifluoromethyl)phenyl]pyrimidin-4-yl]methyl]pyrrolidine-2-carboxamide]
0.0057 | C[C@H](NS(=O)(=O)c1cc2cc(F)ccc2o1)C(=O)NCc1cc(-c2ccc(C(F)(F)F)cc2O)ncn1 [Example 290, (2S)-2-[(5-fluorobenzofuran-2-yl)sulfonylamino]-N-[[6-[2-hydroxy-4-(trifluoromethyl)phenyl]pyrimidin-4-yl]methyl]propanamide]
0.028 | O=C(NCc1cccc(OCc2ccc(C(F)(F)F)cn2)c1)[C@@H]1CCCN1S(=O)(=O)c1cc2ccccc2o1 [Example 291, (2S)-1-(benzofuran-2-ylsulfonyl)-N-[[3-[[5-(trifluoromethyl)-2-pyridyl]methoxy]phenyl]methyl]pyrrolidine-2-carboxamide]
0.0031 | N#Cc1ccc(-c2cc(CNC(=S)[C@@H]3CCCN3S(=O)(=O)c3cc4ccccc4o3)ccn2)cc1 [Example 293, (2S)-1-(benzofuran-2-ylsulfonyl)-N-[[2-(4-cyanophenyl)-4-pyridyl]methyl]pyrrolidine-2-carbothioamide]
0.0079 | O=C(NCc1cccc(Nc2ccc(C(F)(F)F)cc2)c1)[C@@H]1CCCN1S(=O)(=O)c1cc2cc(F)ccc2o1 [Example 296, (2S)-1-(5-fluorobenzofuran-2-yl)sulfonyl-N-[[3-[4-(trifluoromethyl)anilino]phenyl]methyl]pyrrolidine-2-carboxamide]
0.0075 | O=C(NCc1cccc(/C=C/c2ccc(C(F)(F)F)cc2)c1)[C@@H]1CCCN1S(=O)(=O)c1cc2cc(F)ccc2o1 [Example 297, (2S)-1-(5-fluorobenzofuran-2-yl)sulfonyl-N-[[3-[(E)-2-[4-(trifluoromethyl)phenyl]vinyl]phenyl]methyl]pyrrolidine-2-carboxamide]
0.011 | O=C(NCc1cccc(COc2ccc(C(F)(F)F)cc2)c1)[C@@H]1CCCN1S(=O)(=O)c1cc2ccccc2o1 [Example 298, (2S)-1-(benzofuran-2-ylsulfonyl)-N-[[3-[[4-(trifluoromethyl)phenoxy]methyl]phenyl]methyl]pyrrolidine-2-carboxamide]
0.026 | C[C@H](NS(=O)(=O)c1cc2cnccc2o1)C(=O)NCc1cc(-c2ccc(OC(F)(F)F)cc2)ncn1 [Example 305, (2S)-2-(furo[3,2-c]pyridin-2-ylsulfonylamino)-N-[[6-[4-(trifluoromethoxy)phenyl]pyrimidin-4-yl]methyl]propanamide]
0.0028 | O=C(NCc1cc(-c2ccc(OC(F)(F)F)cc2)ncn1)[C@@H]1CCCN1S(=O)(=O)c1cc2cnccc2o1 [Example 306, (2S)-1-furo[3,2-c]pyridin-2-ylsulfonyl-N-[[6-[4-(trifluoromethoxy)phenyl]pyrimidin-4-yl]methyl]pyrrolidine-2-carboxamide]
0.0017 | O=C(NCc1ccc(F)c(-c2ccc(C(F)(F)F)cc2)c1)[C@@H]1CCCN1S(=O)(=O)c1cc2ccccc2o1 [Example 307, (2S)-1-(benzofuran-2-ylsulfonyl)-N-[[4-fluoro-3-[4-(trifluoromethyl)phenyl]phenyl]methyl]pyrrolidine-2-carboxamide]
0.01 | O=C(NCc1ccc(F)c(-c2ccc(C(F)(F)F)cn2)c1)[C@@H]1CCCN1S(=O)(=O)c1cc2ccccc2o1 [Example 309, (2S)-1-(benzofuran-2-ylsulfonyl)-N-[[4-fluoro-3-[5-(trifluoromethyl)-2-pyridyl]phenyl]methyl]pyrrolidine-2-carboxamide]
0.0025 | COc1cc(CNC(=O)[C@@H]2CCCN2S(=O)(=O)c2cc3ccccc3o2)cc(-c2ccc(C(F)(F)F)nc2)c1 [Example 310, (2S)-1-(benzofuran-2-ylsulfonyl)-N-[[3-methoxy-5-[6-(trifluoromethyl)-3-pyridyl]phenyl]methyl]pyrrolidine-2-carboxamide]
0.0053 | CN(C)c1nc(CNC(=O)[C@@H]2CCCN2S(=O)(=O)c2cc3ccccc3o2)cc(-c2ccc(C(F)(F)F)cc2)n1 [Example 312, (2S)-1-(benzofuran-2-ylsulfonyl)-N-[[2-(dimethylamino)-6-[4-(trifluoromethyl)phenyl]pyrimidin-4-yl]methyl]pyrrolidine-2-carboxamide]
